Source: patent US11076595B2, “1-(n,n-disubstituted carbamoyl) 4-(substituted sulfonyl)triazolin-5-one derivative, 4-(n,n-disubstituted carbamoyl) 1-(substituted sulfonyl)triazolin-5-one derivative, and herbicide containing said derivative as active ingredient” (HOKKO CHEMICAL INDUSTRY CO., LTD., priority 2017, dated 2021)

Tests used:
Scirpus juncoides [1] = assay: Test Example 1: herbicidal effect test by soil treatment in paddy field; type: in vivo; details: 120 g/10a, paddy soil treatment just after sowing, 14 days after treatment
In short: (§1)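 Paddy soil in flooded pots (~3 cm water), sown with 30 seeds per species at 0–1 cm depth, kept in a greenhouse. Water-diluted emulsifiable concentrate applied dropwise right after sowing at 120 g active ingredient per 10 are. Weed suppression (%) from dry weight vs untreated pots after 14 days, two replicates.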

Lindernia pyxidaria [2] = assay: as above; type: in vivo; details: 120 g/10a, paddy soil treatment just after sowing, 14 days after treatment
In short: as §1

Monochoria vaginalis [3] = assay: as above; type: in vivo; details: 120 g/10a, paddy soil treatment just after sowing, 14 days after treatment
In short: as §1

Echinochloa crus-galli [4] = assay: as above; type: in vivo; details: 120 g/10a, paddy soil treatment just after sowing, 14 days after treatment
In short: as §1

Amaranthus viridis [5] = assay: Test Example 4: herbicidal effect test by foliage treatment in upland field; type: in vivo; details: upland field foliage treatment 7 days after sowing; 120 g/10a; evaluated 14 days after treatment
In short: (§2)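 Weeds were sown in alluvial field soil, 20 seeds per species, and sprayed 7 days after sowing with water-diluted emulsifiable concentrate at 100 liter per 10 are, equal to 120 g active ingredient per 10 are. Suppression was scored 14 days after treatment from dry weight relative to untreated plots.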

Chenopodium album [6] = assay: as above; type: in vivo; details: upland field foliage treatment 7 days after sowing; 120 g/10a; evaluated 14 days after treatment
In short: as §2

crabgrass [7] = assay: as above; type: in vivo; details: upland field foliage treatment 7 days after sowing; 120 g/10a; evaluated 14 days after treatment
In short: as §2

Echinochloa crus-galli [8] = assay: as above; type: in vivo; details: upland field foliage treatment 7 days after sowing; 120 g/10a; evaluated 14 days after treatment
In short: as §2

Amaranthus viridis [9] = assay: Test Example 3: herbicidal effect test by soil treatment in upland field; type: in vivo; details: upland field soil treatment 1 day after sowing; 120 g/10a; evaluated 14 days after treatment
In short: (§3)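 Pots of alluvial field soil sown with 20 seeds per weed species; one day later emulsifiable concentrate diluted in water and sprayed on soil surface at 100 L per 10 are, 120 g active ingredient per 10 are. Suppression rate (%) from dry weight versus untreated plots after 14 days, two replicates.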

Chenopodium album [10] = assay: as above; type: in vivo; details: upland field soil treatment 1 day after sowing; 120 g/10a; evaluated 14 days after treatment
In short: as §3

crabgrass [11] = assay: as above; type: in vivo; details: upland field soil treatment 1 day after sowing; 120 g/10a; evaluated 14 days after treatment
In short: as §3

Echinochloa crus-galli [12] = assay: as above; type: in vivo; details: upland field soil treatment 1 day after sowing; 120 g/10a; evaluated 14 days after treatment
In short: as §3

Scirpus juncoides [13] = assay: Test Example 2: herbicidal effect test by treatment during growing period in paddy field; type: in vivo; details: treatment 7 days after sowing, 120 g/10a, evaluated 14 days after treatment
In short: (§4)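 Paddy soil in flooded pots (~3 cm water), 30 seeds per species sown 0–1 cm deep, greenhouse. Emulsifiable concentrate diluted in water and dripped into the water 7 days after sowing at 120 g a.i. per 10 are. Suppression (%) from dry weight vs untreated, 14 days post-treatment, two replicates.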

Lindernia pyxidaria [14] = assay: as above; type: in vivo; details: treatment 7 days after sowing, 120 g/10a, evaluated 14 days after treatment
In short: as §4

Monochoria vaginalis [15] = assay: as above; type: in vivo; details: treatment 7 days after sowing, 120 g/10a, evaluated 14 days after treatment
In short: as §4

Echinochloa crus-galli [16] = assay: as above; type: in vivo; details: treatment 7 days after sowing, 120 g/10a, evaluated 14 days after treatment
In short: as §4

| Compound | melting point [°C] | weed suppression rate, Scirpus juncoides (Scirpus juncoides [1]) [%] | weed suppression rate, Lindemia pyxidaria (Lindernia pyxidaria [2]) [%] | weed suppression rate, Monochoria vaginalis (Monochoria vaginalis [3]) [%] | weed suppression rate, Echinochloa crus-galli (Echinochloa crus-galli [4]) [%] | herbicidal effect (weed suppression rate), Amaranthus viridis (Amaranthus viridis [5]) [%] | herbicidal effect (weed suppression rate), Chenopodium album (Chenopodium album [6]) [%] | herbicidal effect (weed suppression rate), Crabgrass (crabgrass [7]) [%] | herbicidal effect (weed suppression rate), Echinochloa crus-galli (Echinochloa crus-galli [8]) [%] | herbicidal effect (weed suppression rate), Amaranthus viridis (Amaranthus viridis [9]) [%] | herbicidal effect (weed suppression rate), Chenopodium album (Chenopodium album [10]) [%] | herbicidal effect (weed suppression rate), Crabgrass (crabgrass [11]) [%] | herbicidal effect (weed suppression rate), Echinochloa crus-galli (Echinochloa crus-galli [12]) [%] | weed suppression rate, Scirpus juncoides (Scirpus juncoides [13]) [%] | weed suppression rate, Lindemia pyxidaria (Lindernia pyxidaria [14]) [%] | weed suppression rate, Monochoria vaginalis (Monochoria vaginalis [15]) [%] | weed suppression rate, Echinochloa crus-galli (Echinochloa crus-galli [16]) [%] |
| --- | --- | --- | --- | --- | --- | --- | --- | --- | --- | --- | --- | --- | --- | --- | --- | --- | --- |
| CC(C)N(C(=O)n1ncn(S(=O)(=O)C2CC2)c1=O)c1ccc(F)cc1F [Compound 1-150, 4-cyclopropylsulfonyl-N-(2,4-difluorophenyl)-N-isopropyl-5-oxo-1,2,4-triazole-1-carboxamide] | 144 to 146 | 100 | 100 | 100 | 100 | 90 | 80 | 90 | 80 | 90 | 100 | 100 | 100 | 90 | 90 | 90 | 100 |
| CCN(CC)C(=O)n1ncn(S(C)(=O)=O)c1=O [Compound 1-1] | 81.7 to 85.3 | – | – | – | – | – | – | – | – | – | – | – | – | – | – | – | – |
| CCN(CC)C(=O)n1ncn(S(=O)(=O)Cc2ccccc2)c1=O [Compound 1-968] | 115.8 to 118.6 | – | – | – | – | – | – | – | – | – | – | – | – | – | – | – | – |
| CC(C)N(C(=O)n1ncn(S(=O)(=O)C(C)C)c1=O)c1cccnc1F [Compound 1-90] | – | 90 | 90 | 80 | 100 | 50 | 70 | 90 | 90 | 90 | 90 | 100 | 100 | 90 | 90 | 90 | 100 |

More lines, main results first:

| melting point [°C] | Compound | weed suppression rate, Scirpus juncoides (Scirpus juncoides [1]) [%] | weed suppression rate, Lindemia pyxidaria (Lindernia pyxidaria [2]) [%] | weed suppression rate, Monochoria vaginalis (Monochoria vaginalis [3]) [%] | weed suppression rate, Echinochloa crus-galli (Echinochloa crus-galli [4]) [%] | herbicidal effect (weed suppression rate), Amaranthus viridis (Amaranthus viridis [5]) [%] | herbicidal effect (weed suppression rate), Chenopodium album (Chenopodium album [6]) [%] | herbicidal effect (weed suppression rate), Crabgrass (crabgrass [7]) [%] | herbicidal effect (weed suppression rate), Echinochloa crus-galli (Echinochloa crus-galli [8]) [%] | herbicidal effect (weed suppression rate), Amaranthus viridis (Amaranthus viridis [9]) [%] | herbicidal effect (weed suppression rate), Chenopodium album (Chenopodium album [10]) [%] | herbicidal effect (weed suppression rate), Crabgrass (crabgrass [11]) [%] | herbicidal effect (weed suppression rate), Echinochloa crus-galli (Echinochloa crus-galli [12]) [%] | weed suppression rate, Scirpus juncoides (Scirpus juncoides [13]) [%] | weed suppression rate, Lindemia pyxidaria (Lindernia pyxidaria [14]) [%] | weed suppression rate, Monochoria vaginalis (Monochoria vaginalis [15]) [%] | weed suppression rate, Echinochloa crus-galli (Echinochloa crus-galli [16]) [%] |
| --- | --- | --- | --- | --- | --- | --- | --- | --- | --- | --- | --- | --- | --- | --- | --- | --- | --- |
| 102 to 104 | CC(C)N(C(=O)n1ncn(S(=O)(=O)C2CC2)c1=O)c1ccccc1 [Compound 1-168] | 90 | 80 | 80 | 90 | – | – | – | – | – | – | – | – | 90 | 80 | 80 | 90 |
| 92 to 94 | CC(C)N(C(=O)n1ncn(S(=O)(=O)C(C)C)c1=O)c1ccccc1 [Compound 1-54] | 90 | 80 | 80 | 90 | 90 | 80 | 90 | 80 | – | – | – | – | 90 | 80 | 80 | 90 |
